The results in this text go back to EP1724268A1, “COMPOUND HAVING TGF-BETA INHIBITORY ACTIVITY AND PHARMACEUTICAL COMPOSITION CONTAINING SAME” (KIRIN BEER KABUSHIKI KAISHA, priority 2004, dated 2005).

Each structure is given as a SMILES string.

The subject of the assay is TGFβ signal. Kind of assay: TGFβ signal inhibitory activity, (SBE)4-Luc reporter in A549 cells (Test Examples 1A and 1B). The following applies: Homo sapiens, A549, compounds of Reference Examples (Test Example 1B), read-out: TGFβ inhibition rate, %. In kind it is cell-based, human. The essentials:
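Compounds at 3 µM and 10 µM (some 1 µM) were added with 2 ng/ml TGFβ-1 to A549 cells stably expressing an SBE-driven luciferase, then cultured 4 hr. Chemiluminescent luciferase signal gave % inhibition versus TGFβ-alone and no-TGFβ controls.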

A word on the inhibition: it is the relative decrease from the control value, in per cent. As for `COc1cc2nccc(Oc3cc(C)c(C)nc3-c3cccc(C)n3)c2cc1OC` [Compound r271], the inhibition at 3 µM was 94% and the inhibition at 10 µM is 100%. Regarding `COc1cc2nccc(Oc3cc(C)c(C)nc3-c3ccc(C)cn3)c2cc1OC` [Compound r272], the inhibition at 3 µM amounted to 98% and the inhibition at 10 µM was 100%. As to `COc1cc2nccc(Oc3cc(C)c(C)nc3-c3cc(C)ccn3)c2cc1OC` [Compound r273], the inhibition at 3 µM amounted to 99% and the inhibition at 10 µM came to 100%. For `COc1cc2nccc(Oc3cc4ccccc4nc3CN(C(C)C)C(C)C)c2cc1OC` [Compound r277, [3-(6,7-Dimethoxy-quinolin-4-yloxy)-quinolin-2-ylmethyl]-diisopropyl-amine], in that order: 32% and 89%. For the compound `COc1cc2nccc(Oc3cc4ccccc4nc3C(C)=O)c2cc1OC` [Compound r278, 1-[3-(6,7-Dimethoxy-quinolin-4-yloxy)-quinolin-2-yl]-ethanone], the inhibition at 3 µM was 90% and the inhibition at 10 µM is 99%. In the case of `COc1cc2nccc(Oc3cc4ccccc4nc3Br)c2cc1OC` [Compound r281, 4-(2-Bromo-quinolin-3-yloxy)-6,7-dimethoxy-quinoline], the inhibition at 3 µM turned out to be 88% and the inhibition at 10 µM stood at 100%. For `COc1cc2nccc(Oc3cc4ccccc4nc3-c3ccccc3)c2cc1OC` [Compound r283, 6,7-Dimethoxy-4-(2-phenyl-quinolin-3-yloxy)-quinoline], the inhibition at 3 µM came out at 99% and the inhibition at 10 µM is 100%. The like results for `COc1cc2nccc(Oc3cc4ccccc4nc3-c3cccc(CO)c3)c2cc1OC` [Compound r284, {3-[3-(6,7-Dimethoxy-quinolin-4-yloxy)-quinolin-2-yl]-phenyl}-methanol] were, in that order, 96% and 100%. For `COc1cc2nccc(Oc3cc4ccccc4nc3-c3cccnc3)c2cc1OC` [Compound r288], in that order: 94% and 100%. For the compound `COc1cc2nccc(Oc3ccc4ncsc4c3-c3ccccc3)c2cc1OC` [Compound r295], the inhibition at 3 µM stood at 47% and the inhibition at 10 µM is 96%.

For the compound `COc1cc2nccc(Oc3cc4cccnc4cc3OC)c2cc1OC` [Compound r297, 6,7-Dimethoxy-4-(7-methoxy-quinolin-6-yloxy)-quinoline], the inhibition at 3 µM is 61% and the inhibition at 10 µM turned out to be 94%. Regarding `COc1cc2nccc(Oc3cc4cccnc4cc3-c3ccccc3)c2cc1OC` [Compound r299, 6,7-Dimethoxy-4-(7-phenyl-quinolin-6-yloxy)-quinoline], the inhibition at 3 µM came to 99% and the inhibition at 10 µM was determined as 100%. On to `COc1cc2nccc(Oc3cc4ccncc4cc3C)c2cc1OC` [Compound r300, 6,7-Dimethoxy-4-(7-methyl-isoquinolin-6-yloxy)-quinoline], for which the inhibition at 3 µM turned out to be 9% and the inhibition at 10 µM came out at 63%.

Take `COc1cc2nccc(Oc3cc4ccncc4cc3Br)c2cc1OC` [Compound r301, 4-(7-Bromo-isoquinolin-6-yloxy)-6,7-dimethoxy-quinoline]: the inhibition at 3 µM turned out to be 20% and the inhibition at 10 µM is 75%. In the case of `COc1cc2nccc(Oc3cc4ccncc4cc3-c3ccccn3)c2cc1OC` [Compound r303, 6,7-Dimethoxy-4-(7-pyridin-2-yl-isoquinolin-6-yloxy)-quinoline], the inhibition at 3 µM came to 96%.

In the case of `COc1cc2nccc(Oc3cc4cncnc4cc3C)c2cc1OC` [Compound r305, 6-(6,7-Dimethoxy-quinolin-4-yloxy)-7-methyl-quinazoline], the inhibition at 3 µM was 28% and the inhibition at 10 µM stood at 64%. On to `COc1cc2nccc(Oc3ccnc4ccsc34)c2cc1OC` [Compound r307], for which the inhibition at 3 µM came to 26% and the inhibition at 10 µM came out at 69%. The like results for `COc1cc2nccc(Oc3cc(C)nc4ccc(F)cc34)c2cc1OC` [Compound r308] were, in that order, 21% and 56%.

For the compound `COc1cc2nccc(Oc3cc(C)nc4ccccc34)c2cc1OC` [Compound r309], the inhibition at 3 µM was determined as 41% and the inhibition at 10 µM is 79%.

For `COc1cc2nccc(Oc3cc4cccnc4nc3C)c2cc1OC` [Compound r310], the inhibition at 3 µM came to 72% and the inhibition at 10 µM was determined as 97%.

As for `COc1cc2c(Oc3cc(C)c(C)cc3C(C)=O)ccnc2cc1OCc1ccccc1` [Compound r313], the inhibition at 3 µM is 56% and the inhibition at 10 µM is 94%. Turning to `COc1cc2c(Oc3cc(C)c(C)cc3C(C)=O)ccnc2cc1O` [Compound r314], the inhibition at 3 µM turned out to be 50% and the inhibition at 10 µM came out at 89%.

Regarding `COc1cc2c(Oc3cc(C)c(C)cc3C(C)=O)ccnc2cc1OCCCl` [Compound r315], the inhibition at 3 µM came to 98% and the inhibition at 10 µM came out at 100%. Turning to `COc1cc2c(Oc3cc(C)c(C)cc3C(C)=O)ccnc2cc1OCCN1CCOCC1` [Compound r316], the inhibition at 3 µM was found to be 99% and the inhibition at 10 µM turned out to be 100%. Consider `COc1cc2c(Oc3cc(C)c(C)cc3C(C)=O)ccnc2cc1OCCn1ccnc1` [Compound r317], for which the inhibition at 3 µM was 100% and the inhibition at 10 µM was determined as 100%.

Take `COc1cc2c(Oc3cc(C)c(C)cc3C(C)=O)ccnc2cc1OCCCCl` [Compound r318]: the inhibition at 3 µM came to 82% and the inhibition at 10 µM is 100%.

Consider `COc1cc2c(Oc3cc(C)c(C)cc3C(C)=O)ccnc2cc1OCCCn1ccnc1` [Compound r321], for which the inhibition at 3 µM stood at 100% and the inhibition at 10 µM was determined as 100%. With `CCCOC(=O)c1cc2ccccc2cc1Oc1ccnc2cc(OCCCl)c(OC)cc12` [Compound r322], the inhibition at 3 µM stood at 50% and the inhibition at 10 µM was found to be 88%. For the compound `CCCOC(=O)c1cc2ccccc2cc1Oc1ccnc2cc(OCCN3CCOCC3)c(OC)cc12` [Compound r323], the inhibition at 3 µM came to 89% and the inhibition at 10 µM is 100%. Take `CCCOC(=O)c1cc2ccccc2cc1Oc1ccnc2cc(OCCn3ccnc3)c(OC)cc12` [Compound r324]: the inhibition at 3 µM was 86% and the inhibition at 10 µM stood at 100%. For the compound `CCCOC(=O)c1cc2ccccc2cc1Oc1ccnc2cc(OCCCCl)c(OC)cc12` [Compound r325], the inhibition at 3 µM was 19% and the inhibition at 10 µM turned out to be 60%. Regarding `CCCOC(=O)c1cc2ccccc2cc1Oc1ccnc2cc(OCCCN3CCOCC3)c(OC)cc12` [Compound r326], the inhibition at 3 µM was determined as 83% and the inhibition at 10 µM was 100%. Consider `CCCOC(=O)c1cc2ccccc2cc1Oc1ccnc2cc(OCCCn3ccnc3)c(OC)cc12` [Compound r327], for which the inhibition at 3 µM came to 89% and the inhibition at 10 µM amounted to 100%. For `COc1cc2c(Oc3ccc(C)nc3-c3nccs3)ccnc2cc1OCc1ccccc1` [Compound r328], in that order: 100% and 100%.

As for `COc1cc2c(Oc3ccc(C)nc3-c3nccs3)ccnc2cc1O` [Compound r329], the inhibition at 3 µM was 100% and the inhibition at 10 µM was 100%. Regarding `COc1cc2c(Oc3ccc(C)nc3-c3nccs3)ccnc2cc1OCC(CO)CO` [Compound r330], the inhibition at 3 µM came out at 100% and the inhibition at 10 µM came out at 100%.

`COc1cc2c(Oc3cc(C)c(C)nc3-c3ccccc3)ccnc2cc1OCc1ccccc1` [Compound r331]: the inhibition at 3 µM was 73% and the inhibition at 10 µM turned out to be 90%. For `COc1cc2c(Oc3cc(C)c(C)nc3-c3ccccc3)ccnc2cc1O` [Compound r332], in that order: 97% and 100%. Turning to `COc1cc2c(Oc3cc(C)c(C)nc3-c3ccccc3)ccnc2cc1OCCO` [Compound r333], the inhibition at 3 µM was 100%. For `COc1cc2c(Oc3cc(C)c(C)nc3-c3ccccc3)ccnc2cc1OCC1CO1` (centres unmarked) [Compound r334], the inhibition at 3 µM came to 99%. The same measure, in the same setting: in the case of `COc1cc2c(Oc3cc(C)c(C)nc3-c3ccccc3)ccnc2cc1OCC(O)CO` (centres unmarked) [Compound r335] it was 100%; in that of `COc1cc2c(Oc3cc(C)c(C)nc3-c3ccccc3)ccnc2cc1OCC(CO)CO` [Compound r336], 100%; in that of `COc1cc2c(Oc3cc(C)c(C)nc3-c3ccccn3)ccnc2cc1OCc1ccccc1` [Compound r337], 98%. As to `COc1cc2c(Oc3cc(C)c(C)nc3-c3ccccn3)ccnc2cc1O` [Compound r338], the inhibition at 3 µM came to 92% and the inhibition at 10 µM was found to be 100%. Take `COc1cc2c(Oc3cc(C)c(C)nc3-c3ccccn3)ccnc2cc1OCCO` [Compound r339]: the inhibition at 3 µM amounted to 100%. Same read-out and setting: in the case of `COc1cc2c(Oc3cc(C)c(C)nc3-c3ccccn3)ccnc2cc1OCCCO` [Compound r340] it was 99%; in that of `COc1cc2c(Oc3cc(C)c(C)nc3-c3ccccn3)ccnc2cc1OCC1CO1` (centres unmarked) [Compound r341], 99%; in that of `COc1cc2c(Oc3cc(C)c(C)nc3-c3ccccn3)ccnc2cc1OCC(O)CO` (centres unmarked) [Compound r342], 89%. The same measure, in the same setting: in the case of `COc1cc2c(Oc3cc(C)c(C)nc3-c3ccccn3)ccnc2cc1OCC(CO)CO` [Compound r343] it was 93%; in that of `COc1cc2c(Oc3cc(C)c(C)nc3-c3cccnc3)ccnc2cc1OCc1ccccc1` [Compound r344], 92%. `COc1cc2c(Oc3cc(C)c(C)nc3-c3cccnc3)ccnc2cc1O` [Compound r345]: the inhibition at 3 µM came to 61% and the inhibition at 10 µM was found to be 93%. As for `COc1cc2c(Oc3cc(C)c(C)nc3-c3cccnc3)ccnc2cc1OCCO` [Compound r346], the inhibition at 3 µM was determined as 99%. On to `COc1cc2c(Oc3cc(C)c(C)nc3-c3cccnc3)ccnc2cc1OCCCO` [Compound r347], for which the inhibition at 3 µM came out at 100%.
